Assay results published in patent US6506407B2, “Colon-specific drug release system” (Yamanouchi Pharmaceutical Co., Ltd., priority 1994, dated 2003).

How the values were obtained:
[1] = water solubility of saccharides and sugar alcohols
[2] = system: enterobacteria; assay: generation of organic acid by the action of enterobacteria
[3] = system: contents of the cecum of a rat (enterobacteria); assay: pH of 10 w/v % cecal contents dispersion (CPBS) with saccharide (Test Example 7); details: 200 mg saccharide in 20 ml 10 w/v % CPBS, 37° C.
Experimental: An isotonic phosphate buffer solution (pH: 7.3; PBS) was adjusted to pH 6.8 by CO2 bubbling. The contents of the cecum of a rat deprived of food for 24 hours was dispersed, therein to prepare a 10 w/v % dispersion of the cecal contents in PBS (CPBS). To 20 ml of CPBS was added 200 mg of a saccharide, and the mixture was shaken in a water bath at 37° C., and the pH of the CPBS was measured with time.

[4] = system: contents of the cecum (enterobacteria); assay: pH change of dispersion of rat cecal contents in PBS (C-PBS) with lactulose, shaken at 37° C. under anaerobic condition (Test Example 2); parameters: species or system SD male rat
Experimental: A 1/15 M phosphate buffer solution (NaH2PO4-Na2HPO4; pH 7.3; hereinafter referred to as PBS) was made isotonic by addition of sodium chloride and adjusted to pH 6.8 by CO2 bubbling. The contents of the cecum of an SD male rat was dispersed therein to prepare a 10 w/v % dispersion of the cecal contents in PBS (hereinafter referred to as C-PBS). To 10 ml of C-PBS was added 100 mg of lactulose, and the mixture was shaken (50 strokes/min) at 37° C. under an anaerobic condition, and the pH change was measured. As a control, the same test was conducted on no lactulose-administered C-PBS. The same test was carried out on a mixture of 30 w/v % C-PBS and lactulose. As shown in the table, the pH of the cecal contents rapidly decreases by the addition of lactulose.

[5] = pH in the cecum with time after oral lactulose aqueous solution (Test Example 3); type: in vivo, SD male rats; details: for pH in the cecum: oral 100 mg/rat
Experimental: SD male rats deprived of food overnight were orally given a lactulose aqueous solution (100 mg/rat), and the pH in the cecum was measured with time.

[6] = phosphorus concentration in plasma after salmon calcitonin; type: in vivo; details: beagle dogs in fasted condition, s.c., 50 IU/animal, versus untreated control
Experimental: The following solution was subcutaneously administered to beagle dogs in fasted condition. Blood was taken with time to determine the phosphorus concentration in plasma using Inorganic Phosphorus E-HA Test Wako (Wako Pure Chemical Industries, Ltd.).
1% Gelatin solution containing 50 IU/0.2 ml of salmon calcitonin (pH 3; 0.2 ml; 50 IU/animal)
A single tablet of the preparation obtained in Examples 21, 22 or 24 or two tablets of the preparation obtained in Example 23 was administered orally to beagle dogs together with 30 ml of water, and blood was taken with time to determine the phosphorus concentration in plasma.
A single tablet of the preparation obtained in Examples 25, 26 or 28 or two tablets of the preparation obtained in Example 27 was administered orally to beagle dogs together with 30 ml of water, and blood was taken with time to determine the phosphorus concentration in plasma.

**Q.** What does the source list for `OC[C@@H](O)[C@H](O)[C@@H](O)CO` [xylitol]?
**A.** water solubility [1]: high; rapid generation of an organic acid by enterobacteria [2]: rapid generation of an organic acid was not observed

**Q.** With fructooligosaccharide as the compound, how does the “degradation by enterobacteria with organic acid generation (pH of CPBS with time)” value (“degradation by enterobacteria” for short) [3] read?
**A.** The value was “degraded by enterobacteria to generate an organic acid similarly to lactulose”.

**Q.** Which water solubility [1] does the source give for `Cc1occc(=O)c1O` [maltol] here?
**A.** Its water solubility is “low”.

**Q.** And the “rapid generation of an organic acid by enterobacteria” value (shortened to “rapid generation of an organic acid”) [2]?
**A.** Its value is “rapid generation of an organic acid was not observed”.

**Q.** What does the source list for `OC[C@H]1O[C@H](O[C@H]2[C@H](O)[C@@H](O)[C@H](O)O[C@@H]2CO)[C@H](O)[C@@H](O)[C@@H]1O` [maltose]?
**A.** degradation by enterobacteria with organic acid generation (pH of CPBS with time) [3]: degraded by enterobacteria to generate an organic acid similarly to lactulose; rapid generation of an organic acid by enterobacteria [2]: generate an organic acid rapidly

**Q.** Which results are given for `O=C[C@H](O)[C@@H](O)[C@H](O)CO` [xylose]?
**A.** water solubility [1]: high; rapid generation of an organic acid by enterobacteria [2]: generate an organic acid rapidly

**Q.** With `OC[C@H]1O[C@@H](O[C@@H]2[C@@H](CO)OC(O)(CO)[C@H]2O)[C@H](O)[C@@H](O)[C@H]1O` (mixture of isomers) [lactulose] as the compound, how does the “pH of C-PBS” value ([4]; 10 w/v % C-PBS 10 ml, lactulose 100 mg, 0 hr) read?
**A.** The value was 6.42.

**Q.** And the “pH of C-PBS” value ([4]; 10 w/v % C-PBS 10 ml, lactulose 100 mg, 2 hr)?
**A.** The value was 5.93.

**Q.** And the “pH of C-PBS” value ([4]; 10 w/v % C-PBS 10 ml, lactulose 100 mg, 4 hr)?
**A.** Its value is 5.64.

**Q.** And the “pH of C-PBS” value ([4]; 10 w/v % C-PBS 10 ml, lactulose 100 mg, 6 hr)?
**A.** The value was 5.41.

**Q.** And the “pH of C-PBS” value ([4]; 10 w/v % C-PBS 10 ml, lactulose 100 mg, 8 hr)?
**A.** The value was 5.27.

**Q.** What about the “pH of C-PBS” value ([4]; 10 w/v % C-PBS 10 ml, lactulose 100 mg, 24 hr) of the same compound?
**A.** The value was 4.76.

**Q.** What about the “pH of C-PBS” value ([4]; 30 w/v % C-PBS and lactulose, 0 hr) of the same compound?
**A.** Its value is 6.42.

**Q.** And the “pH of C-PBS” value ([4]; 30 w/v % C-PBS and lactulose, 2 hr)?
**A.** The value was 5.39.

**Q.** What about the “pH of C-PBS” value ([4]; 30 w/v % C-PBS and lactulose, 4 hr) of the same compound?
**A.** The value was 5.25.

**Q.** What about the “pH of C-PBS” value ([4]; 30 w/v % C-PBS and lactulose, 6 hr) of the same compound?
**A.** Its value is 5.15.

**Q.** And the “pH of C-PBS” value ([4]; 30 w/v % C-PBS and lactulose, 8 hr)?
**A.** The value was 5.08.

**Q.** What about the “duration of pH reduction in the cecum” value ([5]; 100 mg/animal) of the same compound?
**A.** Its value is 8 hours.

**Q.** And the “pH in the cecum reduced to” value ([5]; 100 mg/animal, in 3 to 4 hours from the administration)?
**A.** Its value is “about 5.5”.

**Q.** What about the “pH in the cecum” value ([5]; 1 hr) of the same compound?
**A.** Its value is 8.2.

**Q.** And the “pH in the cecum” value ([5]; 2 hr)?
**A.** Its value is 6.8.

**Q.** What about the “pH in the cecum” value ([5]; 3 hr) of the same compound?
**A.** Its value is 6.2.

**Q.** What about the “pH in the cecum” value ([5]; 4 hr) of the same compound?
**A.** Its value is 5.5.

**Q.** What about the “pH in the cecum” value ([5]; 5 hr) of the same compound?
**A.** The value was 5.6.

**Q.** And the “pH in the cecum” value ([5]; 6 hr)?
**A.** The value was 5.8.

**Q.** What about the “pH in the cecum” value ([5]; 7 hr) of the same compound?
**A.** The value was 5.3.

**Q.** And the “pH in the cecum” value ([5]; rats deprived of food overnight, 0 hr)?
**A.** Its value is 7.6.

**Q.** What about the “rapid generation of an organic acid” value [2] of the same compound?
**A.** The value was “degraded rapidly to generate an organic acid”.

**Q.** With `O=C[C@H](O)[C@H](O)[C@H](O)CO` [ribose] as the compound, how does the water solubility [1] read?
**A.** Its water solubility is “low”.

**Q.** And the “rapid generation of an organic acid” value [2]?
**A.** Its value is “no rapid generation of an organic acid”.

**Q.** Which “phosphorus level in plasma after subcutaneous administration” value [6] does the source give for salmon calcitonin here?
**A.** Its value is “suppressed immediately after the administration”.

**Q.** What does the source list for `O=C[C@H](O)[C@@H](O)[C@@H](O)[C@H](O)CO` [galactose]?
**A.** degradation by enterobacteria with organic acid generation (pH of CPBS with time) [3]: degraded by enterobacteria to generate an organic acid similarly to lactulose; water solubility [1]: high; rapid generation of an organic acid by enterobacteria [2]: generate an organic acid rapidly

**Q.** With `OC[C@H]1O[C@@H](O[C@H]2[C@H](O)[C@@H](O)C(O)O[C@@H]2CO)[C@H](O)[C@@H](O)[C@H]1O` (stereo partly drawn) [lactose] as the compound, how does the “rapid generation of an organic acid” value [2] read?
**A.** The value was “no rapid generation of an organic acid”.

**Q.** Which “degradation by enterobacteria” value [3] does the source give for `O=C(CO)[C@@H](O)[C@H](O)[C@H](O)CO` [fructose] here?
**A.** Its value is “degraded by enterobacteria to generate an organic acid similarly to lactulose”.

**Q.** What about the water solubility [1] of the same compound?
**A.** Its water solubility is “high”.

**Q.** And the “rapid generation of an organic acid” value [2]?
**A.** Its value is “generate an organic acid rapidly”.

**Q.** What does the source list for `OC[C@@H](O)[C@@H](O)[C@H](O)[C@H](O)CO` [mannitol]?
**A.** water solubility [1]: medium; rapid generation of an organic acid by enterobacteria [2]: rapid generation of an organic acid was not observed

**Q.** For `OC[C@@H](O)[C@@H](O)[C@H](O)[C@@H](O)CO` [sorbitol], which water solubility [1] is on record?
**A.** The water solubility was “high”.

**Q.** What about the “rapid generation of an organic acid” value [2] of the same compound?
**A.** The value was “rapid generation of an organic acid was not observed”.

**Q.** Which “degradation by enterobacteria” value [3] does the source give for `OC[C@H]1O[C@@](CO)(O[C@H]2O[C@H](CO)[C@@H](O)[C@H](O)[C@H]2O)[C@@H](O)[C@@H]1O` [sucrose] here?
**A.** The value was “degraded by enterobacteria to generate an organic acid similarly to lactulose”.

**Q.** And the water solubility [1]?
**A.** The water solubility was “high”.

**Q.** What about the “rapid generation of an organic acid” value [2] of the same compound?
**A.** Its value is “generate an organic acid rapidly”.
